Test results from patent US10577406B2, “FKBP-L polypeptides and uses in angiogenesis-mediated disorders” (ALMAC DISCOVERY LIMITED, priority 2006, dated 2020).

B1: full length recombinant FKBP-L: recombinant full length his-tagged FKBP-L protein (SEQ ID NO: 1) expressed in BL21 (DE3) (protein, listed as Homo sapiens)
chain: MRGSHHHHHHGMASMTGGQQMGRDLYDDDDKDRWGSMETPPVNTIGEKDTSQPQQEWEKNLRENLDSVIQIRQQPRDPPTETLELEVSPDPASQILEHTQGAEKLVAELEGDSHKSHGSTSQMPEALQASDLWYCPDGSFVKKIVIRGHGLDKPKLGSCCRVLALGFPFGSGPPEGWTELTMGVGPWREETWGELIEKCLESMCQGEEAELQLPGHTGPPVGLTLASFTQGRDSWELETSEKEALAREERARGTELFRAGNPEGAARCYGRALRLLLTLPPPGPPERTVLHANLAACQLLLGQPQLAAQSCDRVLEREPGHLKALYRRGVAQAALGNLEKATADLKKVLAIDPKNRAAQEELGKVVIQGKNQDAGLAQGLRKMFG
modifications: His tag

Columns and labels:
HMEC-1 = assay: cell adhesion assay on Matrigel (MTT readout); format: cell-based, Human; settings: 1 h at 37° C.
Protocol: A 96-well plate was pre-coated with a thin layer of Matrigel which was allowed to set overnight. The plate wells were blocked with 0.5% BSA for 1 h at 37° C. in a 95% air/5% CO2 incubator. Human microvascular endothelial cells (HMEC-1) were trypsinised and re-suspended in fresh medium and seeded at a density of 20000 cells per well. The plates were placed at 4° C. for 10 min to allow the cells to sediment to the bottom of the wells. The required amount of medium supplemented with the FKBP-L 24mer was added to each well and the plate incubated for 1 h at 37° C. The excess medium and unattached cells were removed and the wells washed three times with sterile PBS. The wells were supplemented with fresh medium and MTT added (5 mgml^−1). The plate was incubated for a further 4 h at 37° C. DMSO was added to each well to solubilise the MTT to formazen and the plate read at 540nm, with the relative absorbance of control wells compared to FBKP-L 24mer-supplemented wells.

HMEC-1 cells [1] = assay: MTT assay of cell viability/proliferation; settings: 24mer 10^−5-10^−10M, 1-57mer 10^−9M and 10^−10M; 24 hours and 48 hours
Protocol: (§3) An MTT assay was used to measure cell viability/proliferation.
(§4) An MTT assay was used to measure cell viability and/or proliferation. Briefly, HMEC-1 cells were seeded (2.5×10^3) in 96 well plates and allowed to attach for 5 h. The cells were treated with FKBP-L 24mer (SEQ ID NO: 10) (10^−5-10^−10M), 1-57mer (SEQ ID NO: 6) (10^−9M and 10^−10M) or medium (control).
(§5) Post incubation the cells were exposed to a 5 mgml^−1 solution of 3-(-4,5-dimethylthiazol-2-yl) 2,5 diphenyl tetrazolium (MTT) for 4 h. The cells were aspirated and 200 μl of DMSO added to reduce the salt and induce a colour change.

[2] = tested on: HMEC-1 (microvascular endothelial cells; CD44+ve); assay: cell invasion in a modified Boyden chamber system, HMEC-1; format: cell-based, Human; settings: 48 h
Protocol: Twelve well plate polycarbonate inserts were divided into two groups with half remaining uncoated and half coated with 100 μg/cm^2 of Matrigel. The coated inserts were allowed to dry overnight at room temperature in a sterile tissue culture hood. The required cell line; HMEC-1, PC3 or MDA231 was trypsinised, re-suspended in fresh medium and the cell number calculated. 5×10^5 cells, in a total volume of 500 μl, were added to the insert (top chamber) and 1.5 ml of complete medium added to the bottom chamber of the plate as a stimulus for invasion. FKBP-L 24mer was added to both the upper and lower chamber of the plate at the required concentration in the experimental wells. The plate was incubated for 24 h (PC3 or MDA231) or 48 h (HMEC-1).
The inserts were carefully removed from their 12 well plate and inserts without Matrigel coating were placed directly into Carnoys fixative. […]
The polycarbonate inserts were cut from the holders and placed on to mounting medium on a microscope slide. […] The slides were stored at 4° C. until analysed.
Ten images from each insert were captured and the number of fluorescent cells per image was analysed by Lucia Imaging software. The ratio of cells visible on non-coated inserts compared to cells visible on Matrigel coated inserts was expressed as % invasion. […]

[3] = tested on: mouse endothelial cells, 2H-11; assay: wound scrape assay in a mouse endothelial cell line; format: cell-based; settings: 10^−14-10^−7 M; 7 hours
Protocol: This experiment evaluated the ability of the FKBP-L 24mer to inhibit endothelial cell migration over a dose ranges spanning from 10^−14 M to 10^−7 M. The in vitro migration assay used in these studies is a modified version of the method described by Ashton et al (1999) see supra. In this assay mouse endothelial cells, 2H-11, were obtained from the American Tissue Culture Collection and were grown in D-MEM containing 10% FCS. They were plated into individual chambers on a glass slide and grown to 90% confluence overnight. The medium was removed and the monolayer wounded. The monolayer was re-supplemented with fresh medium and the required volume of the FKBPL 24mer peptide was added to achieve a dose range from 10^−14-10^−7 M. The monolayers were incubated for 7 hours and then fixed in 4% PBS buffered paraformaldehyde.
The extent of “wound” closure was blindly assessed microscopically by an independent investigator and quantified using a calibrated eyepiece graticule (1 mm/100 μm graduation) at 20× magnification (Olympus BX 50). The extent of closure in the FKBP-L 24mer treated slides was compared to time matched sham treated controls and the % inhibition of wound closure compared to time matched controls calculated.

HMEC-1 cells [4] = tested on: HMEC-1 cells
Protocol: as §3, §4, §5

[5] = tested on: HT29 (Colorectal tumor cell line; CD44 +ve); assay: tumor cell migration, wound closure assay, HT29; format: cell-based; settings: 24 hours
Protocol: In these experiments, the effect of recombinant FKBP-L on tumor cell migration was assessed. The in vitro migration assay used in these studies is a modified version of the method described by Ashton et al (1999) see supra. PC3, MDA231, and HT29 tumor cells were plated into individual chambers on a glass slide and grown to 90% confluence overnight. The medium was removed and the monolayers wounded. The monolayer was re-supplemented with fresh medium and the required volume of His-tagged recombinant FKBP-L protein (SEQ ID NO: 1) was added to give the final concentrations shown. The monolayers were incubated for 24 hours and then fixed in 4% PBS buffered paraformaldehyde.
The extent of “wound” closure was blindly assessed microscopically by an independent investigator and quantified using a calibrated eyepiece graticule (1 mm/100 μm graduation) at 20× magnification (Olympus BX 50). The extent of closure in the FKBP-L treated slides was compared to time matched sham-treated controls and the percent inhibition of wound closure compared to time matched controls calculated. […]
The extent of “wound” closure was blindly assessed microscopically by an independent investigator and quantified using a calibrated eyepiece graticule (1 mm/100 μm graduation) at 20× magnification (Olympus BX 50). […]

[6] = tested on: DU145 (prostate tumor cell line; CD44 −ve); assay: tumor cell migration, wound closure assay, DU145; format: cell-based, human; settings: 24 h
Protocol: (§1) The in vitro migration assay used in these studies is a modified version of the method described by Ashton et al. (1999) see supra. PC3 (prostate tumor cell line; CD44 positive; CD44 +ve), MDA231 (breast tumor cell line; CD44 +ve), HT29 (Colorectal tumor cell line; CD44 +ve), MCF-7 (breast tumor cell line; CD44 negative; CD44 −ve) and DU145 (prostate tumor cell line; CD44 −ve) were plated into individual chambers on a glass slide and grown to 90% confluence overnight. The medium was removed and the monolayers wounded. […] The monolayers were incubated for 24 h and then fixed in 4% PBS buffered paraformaldehyde.
(§2) The extent of “wound” closure was blindly assessed microscopically by an independent investigator and quantified using a calibrated eyepiece graticule (1 mm/100 μm graduation) at 20× magnification (Olympus BX 50). The extent of closure in the FKBP-L treated slides was compared to time matched sham treated controls and the % inhibition of wound closure compared to time matched controls calculated.

[7] = tested on: MCF-7 (breast tumor cell line; CD44 −ve); assay: tumor cell migration, wound closure assay, MCF-7; format: cell-based; settings: MCF-7 (CD44 −ve); 24 h
Protocol: as §1, §2

Row | Molecule | effect on cell adhesion (HMEC-1) | effect on proliferation of HMEC-1 cells compared to time-matched controls (HMEC-1 cells [1]) | effect on cell invasion through Matrigel [2] | effect on wound closure in mouse endothelial cells [3] | effect on proliferation of HMEC-1 cells compared to time matched controls (HMEC-1 cells [4]) | effect on tumor cell migration [5] | effect on tumor cell migration [6] | effect on tumor cell migration [7]
1 | H-QIRQQPRDPPTETLELEVSPDPAS-OH [FKBP-L 24mer] | potent inhibitor of HMEC-1 adhesion | neither of the peptides had any significant effect | potent inhibitor | inhibited wound closure |  |  |  | 
2 | B1 |  |  |  |  | no significant effect | inhibits tumor cell migration in a dose-dependent manner | not in CD44 −ve tumor cell lines | not in CD44 −ve tumor cell lines
